Experimental data taken from ChEMBL document CHEMBL1772953, “Lupinacidin C, an inhibitor of tumor cell invasion from Micromonospora lupini” (J Nat Prod, 2011).

Key:
[1] = Antiinvasive activity against mouse 26-L5 cells after 6 to 8 hrs using hematoxylin/eosin dye by Matrigel assay; type: functional, cell-based
[2] = Cytotoxicity against mouse 26-L5 cells at <0.3 ug/ml after 24 hrs; type: cell-based

SMILES: Cc1c(O)c(CCC(C)C)c2c(c1O)C(=O)c1cccc(O)c1C2=O [LUPINACIDIN A]
- IC50 [1]: 0.21 µM

SMILES: CCCCc1c(O)c(C)c(O)c2c1C(=O)c1c(O)cccc1C2=O [LUPINACIDIN B]
- IC50 [1]: 0.92 µM

SMILES: CC[C@H](C)CCc1c(O)c(C)c(O)c2c1C(=O)c1c(O)cccc1C2=O [LUPINACIDIN C]
- Activity [2]: Non-toxic
- IC50 [1]: 0.54 µM
